Measurements as given in PubChem BioAssay AID256 (DTP/NCI, 2004).
Several values for one entry are separate records, joined by “and”; a condition that tells them apart may be missing. Equal values may be shown once. Inconclusive results and toxic doses are left out. Rule for the calls: active = survival T/C of 150% or more; inactive = T/C below 125% in these data.

System: CD2F1 mice, L1210 leukemia ip, survival T/C
Experiment: NCI In Vivo Anticancer Drug Screen. Data for tumor model L1210 Leukemia (intraperitoneal) in CD2F1 (CDF1) mice
Settings: higher = longer survival
Outline: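 Implant tumor; dose compound or vehicle; measure endpoint in both groups; report treated divided by control.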

[1] = endpoint: mean survival time, dose: 25.0 mg/kg/injection, schedule: Q01DX009 (ip), vehicle: water
[2] = endpoint: mean survival time, dose: 50.0 mg/kg/injection, schedule: Q01DX009 (ip), vehicle: water
[3] = endpoint: mean survival time, dose: 100.0 mg/kg/injection, schedule: Q01DX009 (ip), vehicle: water
[4] = endpoint: mean survival time, dose: 100.0 mg/kg/injection, schedule: Q01DX009 (ip), vehicle: saline with Tween-80
[5] = endpoint: mean survival time, dose: 200.0 mg/kg/injection, schedule: Q01DX009 (ip), vehicle: saline with Tween-80
[6] = endpoint: mean survival time, dose: 100.0 mg/kg/injection, schedule: Q01DX001 (ip), vehicle: Klucel (hydroxypropylcellulose) (HPC)
[7] = endpoint: mean survival time, dose: 400.0 mg/kg/injection, schedule: Q01DX001 (ip), vehicle: Klucel (hydroxypropylcellulose) (HPC)
[8] = endpoint: mean survival time, dose: 50.0 mg/kg/injection, schedule: Q04DX002 (ip), vehicle: saline with Tween-80
[9] = endpoint: mean survival time, dose: 100.0 mg/kg/injection, schedule: Q04DX002 (ip), vehicle: saline with Tween-80
[10] = endpoint: mean survival time, dose: 12.5 mg/kg/injection, schedule: Q01DX009 (ip), vehicle: saline
[11] = endpoint: mean survival time, dose: 25.0 mg/kg/injection, schedule: Q01DX009 (ip), vehicle: saline
[12] = endpoint: mean survival time, dose: 50.0 mg/kg/injection, schedule: Q01DX009 (ip), vehicle: saline
[13] = endpoint: mean survival time, dose: 100.0 mg/kg/injection, schedule: Q01DX009 (ip), vehicle: saline
[14] = endpoint: mean survival time, dose: 100.0 mg/kg/injection, schedule: Q04DX003 (ip), vehicle: saline with Tween-80
[15] = endpoint: mean survival time, dose: 200.0 mg/kg/injection, schedule: Q04DX003 (ip), vehicle: saline with Tween-80
[16] = endpoint: mean survival time, dose: 400.0 mg/kg/injection, schedule: Q04DX003 (ip), vehicle: saline with Tween-80
[17] = endpoint: mean survival time, dose: 200.0 mg/kg/injection, schedule: Q01DX001 (ip), vehicle: saline
[18] = endpoint: mean survival time, dose: 25.0 mg/kg/injection, schedule: Q04DX002 (ip), vehicle: saline with Tween-80
[19] = endpoint: mean survival time, dose: 200.0 mg/kg/injection, schedule: Q04DX002 (ip), vehicle: saline with Tween-80

Measured: T/C

COc1cc2ccc(/C=N/NC(N)=S)cc2cc1OC
inactive: [1] 94 % of control | [2] 98 % of control | [3] 102 % of control | endpoint: mean survival time, dose: 200.0 mg/kg/injection, schedule: Q01DX009 (ip), vehicle: water 93 % of control

C=CC1CC2CC(C1C)C2(C)C (centres undefined)
inactive: endpoint: mean survival time, dose: 50.0 mg/kg/injection, schedule: Q01DX009 (ip), vehicle: saline with Tween-80 96 % of control | [4] 100 % of control | [5] 104 % of control

N#C/C(=C(\N)c1ccccc1)c1ccccc1
inactive: [6] 93 % of control | [7] 112 % of control

N#CS.N=C=S.N=C=S.[Co+3].[NH-]CC[NH-].[NH-]CC[NH-]
inactive: endpoint: mean survival time, dose: 100.0 mg/kg/injection, schedule: Q04DX002 (ip), vehicle: saline 111 % of control | endpoint: mean survival time, dose: 200.0 mg/kg/injection, schedule: Q04DX002 (ip), vehicle: saline 104 % of control

COc1c(NC(=O)Nc2ccccc2C)cccc1[N+](=O)[O-]
inactive: [8] 94 % of control | [9] 90 % of control and 96 % of control

O=C(O)C1CSCN1 (centres undefined)
inactive: endpoint: mean survival time, dose: 3.12 mg/kg/injection, schedule: Q01DX009 (ip), vehicle: saline 97 % of control | endpoint: mean survival time, dose: 3.12 mg/kg/injection, schedule: Q01DX009 (ip), vehicle: water 101 % of control | endpoint: mean survival time, dose: 6.25 mg/kg/injection, schedule: Q01DX009 (ip), vehicle: saline 98 % of control | endpoint: mean survival time, dose: 6.25 mg/kg/injection, schedule: Q01DX009 (ip), vehicle: water 93 % of control | [10] 96 % of control | endpoint: mean survival time, dose: 12.5 mg/kg/injection, schedule: Q01DX009 (ip), vehicle: water 102 % of control | [11] 93 % of control | [1] 98 % of control | [12] 100 % of control | [2] 95 % of control | [13] 95 % of control | [3] 95 % of control | endpoint: median survival time, dose: 3.12 mg/kg/injection, schedule: Q01DX009 (ip), vehicle: Klucel (hydroxypropylcellulose) (HPC) 93 % of control | endpoint: median survival time, dose: 6.25 mg/kg/injection, schedule: Q01DX009 (ip), vehicle: Klucel (hydroxypropylcellulose) (HPC) 95 % of control | endpoint: median survival time, dose: 12.5 mg/kg/injection, schedule: Q01DX009 (ip), vehicle: Klucel (hydroxypropylcellulose) (HPC) 102 % of control | endpoint: median survival time, dose: 15.0 mg/kg/injection, schedule: Q01DX005 (ip), vehicle: saline 108 % of control | endpoint: median survival time, dose: 25.0 mg/kg/injection, schedule: Q01DX009 (ip), vehicle: Klucel (hydroxypropylcellulose) (HPC) 91 % of control | endpoint: median survival time, dose: 50.0 mg/kg/injection, schedule: Q01DX005 (ip), vehicle: saline 101 % of control | endpoint: median survival time, dose: 50.0 mg/kg/injection, schedule: Q01DX009 (ip), vehicle: Klucel (hydroxypropylcellulose) (HPC) 95 % of control | endpoint: median survival time, dose: 60.0 mg/kg/injection, schedule: Q01DX005 (ip), vehicle: saline 103 % of control | endpoint: median survival time, dose: 100.0 mg/kg/injection, schedule: Q01DX009 (ip), vehicle: Klucel (hydroxypropylcellulose) (HPC) 91 % of control | endpoint: median survival time, dose: 120.0 mg/kg/injection, schedule: Q01DX005 (ip), vehicle: saline 100 % of control

CCO[Si](C)(CCCOCC1CO1)OCC (centres undefined)
inactive: endpoint: mean survival time, dose: 50.0 mg/kg/injection, schedule: Q01DX009 (ip), vehicle: Klucel (hydroxypropylcellulose) (HPC) 102 % of control | endpoint: mean survival time, dose: 100.0 mg/kg/injection, schedule: Q01DX009 (ip), vehicle: Klucel (hydroxypropylcellulose) (HPC) 100 % of control | endpoint: mean survival time, dose: 200.0 mg/kg/injection, schedule: Q01DX009 (ip), vehicle: Klucel (hydroxypropylcellulose) (HPC) 94 % of control

CCOC1=C([N+](=O)[O-])C(c2ccccc2)NC1=O (centres undefined)
inactive: [14] 95 % of control | [15] 95 % of control | [16] 89 % of control

C[N+](C)(C)c1ncnc2nc[nH]c12
inactive: [10] 98 % of control and 108 % of control | [11] 106 % of control and 108 % of control | [12] 97 % of control and 112 % of control | [13] 120 % of control and 121 % of control

COC(=O)C1(C)CCCC2(C)C1CCC1(O)C(O)C(C(C)C)=CCC21 (centres undefined)
inactive: [14] 92 % of control | [15] 93 % of control | [16] 92 % of control

CC(C)NCCO
inactive: endpoint: mean survival time, dose: 75.0 mg/kg/injection, schedule: Q01DX001 (ip), vehicle: saline 98 % of control | endpoint: mean survival time, dose: 100.0 mg/kg/injection, schedule: Q01DX001 (ip), vehicle: saline 97 % of control | endpoint: mean survival time, dose: 150.0 mg/kg/injection, schedule: Q01DX001 (ip), vehicle: saline 100 % of control | [17] 97 % of control

CCNc1nnc(N=Nc2ccccc2)s1
inactive: [18] 91 % of control | [8] 95 % of control | [9] 95 % of control | [19] 88 % of control

C=CC1CC2C=CC1C2 (centres undefined) (tested in a mixture with another compound)
inactive: endpoint: mean survival time, dose: 80.5 mg/kg/injection, schedule: Q01DX009 (ip), vehicle: saline with Tween-80 106 % of control | endpoint: mean survival time, dose: 161.0 mg/kg/injection, schedule: Q01DX009 (ip), vehicle: saline with Tween-80 90 % of control

CCN=C(N)C(N)=NCC
inactive: [18] 100 % of control | [8] 96 % of control | [9] 100 % of control | [19] 100 % of control

Brc1ccc(OCC(COc2ccc(Br)cc2)(COc2ccc(Br)cc2)COc2ccc(Br)cc2)cc1
inactive: [6] 100 % of control | endpoint: mean survival time, dose: 200.0 mg/kg/injection, schedule: Q01DX001 (ip), vehicle: Klucel (hydroxypropylcellulose) (HPC) 103 % of control | [7] 91 % of control

CC(=O)Nc1ccc(S(=O)(=O)OCCCl)cc1
inactive: [14] 96 % of control | [15] 110 % of control | [16] 102 % of control

O=C1C=CC(=O)C=C1 (tested in a mixture with another compound)
inactive: endpoint: mean survival time, dose: 1.0 mg/kg/injection, schedule: Q01DX009 (ip), vehicle: saline sonified 98 % of control | endpoint: mean survival time, dose: 1.0 mg/kg/injection, schedule: Q04DX003 (ip), vehicle: saline with Tween-80 97 % of control | endpoint: mean survival time, dose: 2.0 mg/kg/injection, schedule: Q01DX009 (ip), vehicle: saline sonified 94 % of control | endpoint: mean survival time, dose: 2.0 mg/kg/injection, schedule: Q04DX003 (ip), vehicle: saline with Tween-80 95 % of control | endpoint: mean survival time, dose: 3.0 mg/kg/injection, schedule: Q01DX009 (ip), vehicle: saline sonified 98 % of control | endpoint: mean survival time, dose: 3.0 mg/kg/injection, schedule: Q04DX003 (ip), vehicle: saline with Tween-80 95 % of control | endpoint: mean survival time, dose: 6.0 mg/kg/injection, schedule: Q01DX009 (ip), vehicle: saline sonified 90 % of control | endpoint: mean survival time, dose: 6.0 mg/kg/injection, schedule: Q04DX003 (ip), vehicle: saline with Tween-80 97 % of control

Cc1cc(F)ccc1[As](=O)(O)O
inactive: endpoint: mean survival time, dose: 6.25 mg/kg/injection, schedule: Q04DX003 (ip), vehicle: saline with Tween-80 103 % of control | endpoint: mean survival time, dose: 12.5 mg/kg/injection, schedule: Q04DX003 (ip), vehicle: saline with Tween-80 95 % of control | endpoint: mean survival time, dose: 25.0 mg/kg/injection, schedule: Q04DX003 (ip), vehicle: saline with Tween-80 97 % of control

Cc1nc(C)c(Cc2ccccc2O)c(=O)[nH]1
inactive: [17] 103 % of control

S=c1ssc(-c2ccccc2)c1-c1ccccc1
inactive: [4] 97 % of control | [14] 87 % of control | [5] 100 % of control | [15] 92 % of control | endpoint: mean survival time, dose: 400.0 mg/kg/injection, schedule: Q01DX009 (ip), vehicle: saline with Tween-80 106 % of control | [16] 93 % of control

Cc1cc(O)c(C(C)(C)C)cc1C(c1ccccc1)c1cc(C(C)(C)C)c(O)cc1C
inactive: endpoint: mean survival time, dose: 100.0 mg/kg/injection, schedule: Q01DX001 (ip), vehicle: saline with Tween-80 93 % of control | endpoint: mean survival time, dose: 200.0 mg/kg/injection, schedule: Q01DX001 (ip), vehicle: saline with Tween-80 93 % of control | endpoint: mean survival time, dose: 400.0 mg/kg/injection, schedule: Q01DX001 (ip), vehicle: saline with Tween-80 95 % of control

CC(C)NC(=O)c1ccc(N=NN(C)C)cc1
inactive: endpoint: mean survival time, dose: 12.5 mg/kg/injection, schedule: Q01DX009 (ip), vehicle: other 91 % of control and 105 % of control | endpoint: mean survival time, dose: 25.0 mg/kg/injection, schedule: Q01DX009 (ip), vehicle: DMSO 104 % of control | endpoint: mean survival time, dose: 25.0 mg/kg/injection, schedule: Q01DX009 (ip), vehicle: other 119 % of control and 100 % of control | endpoint: mean survival time, dose: 50.0 mg/kg/injection, schedule: Q01DX009 (ip), vehicle: DMSO 110 % of control | endpoint: mean survival time, dose: 100.0 mg/kg/injection, schedule: Q01DX009 (ip), vehicle: other 119 % of control
